Results published in US9499493B2, “2,4-pyrimidinediamine compounds and their uses” (Rigel Pharmaceuticals, Inc., priority 2002, dated 2016).

Experiments:
[1] = test system: cultured human mast cells (CHMC); experiment: CHMC low cell density IgE activation: tryptase assay; format: cell-based; details: anti-IgE
Summary of the method: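 Degranulation is read as supernatant tryptase activity, using tryptase substrate incubated 30 min at room temperature. Before this, CHMC at low density (1000-1500 cells/well) rest 1 hr at 37° C and are triggered with anti-IgE for 30 min at 37° C.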

[2] = test system: cultured human mast cells (CHMC); experiment: CHMC low cell density ionomycin activation: tryptase assay; format: cell-based

Row | Compound | IC50 [1] | IC50 [2]
1 | CCOC(=O)COc1cccc(Nc2ncc(F)c(Nc3ccc4c(c3)NCCO4)n2)c1 [R909242, N4-(1,4-Benzoxazin-6-yl)-N2-[3-ethoxyocarbonylmethyleneoxyphenyl]-5-fluoro-2,4-pyrimidinediamine] | 0.567 µM | > 10 µM
2 | CNC(=O)COc1cccc(Nc2ncc(F)c(Nc3ccc(C)c(OC)c3)n2)c1 [R926902, 5-Fluoro-N2-[3-[(N-methylamino)carbonylmethyleneoxy]phenyl]-N4-(3-methoxy-4-methylphenyl)-2,4-pyrimidinediamine] | 1.37 µM | 4.59 µM
3 | Fc1cnc(Nc2ccc(OCCN3CCOCC3)cc2)nc1Nc1ccc2c(c1)OCCO2 [R926709, N4-(3,4-Ethylenedioxyphenyl)-5-fluoro-N2-[4-[2-(N-morpholino)ethyleneoxy]phenyl]-2,4-pyrimidinediamine] | 0.858 µM | > 10 µM
4 | CNC(=O)COc1ccc(Nc2ncc(F)c(Nc3ccc(C(C)(C)C)cc3)n2)cc1 [R926712, N4-(4-tert-Butylphenyl)-5-fluoro-N2-[4-(N-methylamino)carbonylmethyleneoxyphenyl]-2,4-pyrimidinediamine] | 1.08 µM | > 10 µM
5 | Fc1cnc(Nc2ccc3c(c2)OCCO3)nc1Nc1ccc(OCCN2CCOCC2)cc1 [R926711, N2-(3,4-Ethylenedioxyphenyl)-5-fluoro-N4-[4-[2-(N-morpholino)ethyleneoxy]phenyl]-2,4-pyrimidinediamine] | 1.25 µM | > 10 µM
6 | COCOc1ccc(Nc2nc(Nc3cccc(O)c3)ncc2F)c(F)c1 [R926680, 5-Fluoro-N4-[2-fluoro-4-(methoxymethyleneoxy)phenyl]-N2-(3-hydroxyphenyl)-2,4-pyrimidinediamine] | 1.71 µM | > 10 µM
7 | O=C1COc2ccc(Nc3nc(Cl)ncc3F)nc2N1 [Compound R945298] | > 10 µM | > 10 µM

The next lines start with the values.

Row | IC50 [1] | IC50 [2] | Compound
8 | 0.216 µM | > 10 µM | Fc1cnc(Nc2ccc3[nH]ncc3c2)nc1Nc1ccc(OC(F)(F)F)c(Cl)c1 [R935366, N4-(3-Chloro-4-trifluoromethoxyphenyl)-5-fluoro-N2-(indazoline-5-yl)-2,4-pyrimidinediamine]
9 | > 10 µM | > 10 µM | COc1ccc(Nc2ncc(C)c(Nc3ccc(OC)c(-c4ccccc4)c3)n2)cc1-c1ccccc1 [R935002, N2,N4-Bis[(4-methoxy-3-phenyl)phenyl]-5-methyl-2,4-pyrimidinediamine]
10 | 0.243 µM | > 10 µM | COC(=O)c1cc2ccc(Nc3ncc(F)c(Nc4cccc(O)c4)n3)cc2[nH]1 [R926903]
11 | 0.724 µM | > 10 µM | O=C(COc1cccc(Nc2ncc(F)c(Nc3cc(Cl)c(O)c(Cl)c3)n2)c1)N1CCOCC1 [R950187, N4-(3,5-Dichloro-4-hydroxyphenyl)-5-fluoro-N2-[3-(N-morpholino)carbonylmethyleneoxyphenyl]-2,4-pyrimidinediamine]
12 | 0.69 µM | 7.85 µM | COC(=O)COc1cccc(Nc2ncc(F)c(Nc3ccc4c(c3)OCCO4)n2)c1 [R945124, N4-(3,4-Ethylenedioxyphenyl)-5-fluoro-N2-(3-methoxycarbonylmethyleneoxyphenyl)-2,4-pyrimidinediamine]
13 | > 10 µM | > 10 µM | NC(=O)COc1ccc(Nc2ncc(F)c(Nc3ccc(OCC(N)=O)cc3)n2)cc1 [R945025, N2,N4-Bis[4-(aminocarbonylmethyleneoxy)phenyl]-5-fluoro-2,4-pyrimidinediamine]
14 | 0.403 µM | > 10 µM | OCCCn1ncc2ccc(Nc3ncc(F)c(Nc4ccc5c(c4)OCCO5)n3)cc21 [R935287, N4-(3,4-Ethylenedioxyphenyl)-5-fluoro-N2-[1-(3-hydroxypropyl)indazoline-6-yl]-2,4-pyrimidinediamine]
15 | > 10 µM | > 10 µM | CCOC(=O)COc1cccc(Nc2nc(Nc3cccc(C(C)(C)C)c3)ncc2F)c1 [R940266, N2-(3-tert-Butylphenyl)-N4-(3-ethoxycarbonylmethyleneoxyphenyl)-5-fluoro-4-pyrimidinediamine]
